{
  "source": "patent US20260365684A1",
  "about": "“PHYTOSPHINGOSINE-3,4-CYCLICPHOSPHATE COMPOUND AND PHARMACEUTICAL COMPOSITION COMPRISING THE SAME” (AXCESO BIOPHARMA CO., LTD., priority 2022, published 2026)",
  "key": {"[1]": {"tested_on": "amyloid beta monomer (monomeric Aβ, mAβ)", "test": "Expression of mAβ in brain of AD-induced animal model by fluorescence microscopy", "format": "in vivo", "conditions": "mouse brain, 1 mg/kg i.p. once every 3 days for 2 weeks, FIG. 3", "description": "To determine the therapeutic effect on Alzheimer's Disease (AD), the effects on amyloid beta monomer (monomeric Aβ, mAβ) and Tau protein, which are biomarkers of AD, were analyzed in an AD-induced animal model.\nAPP/PS/Tau transgenic mice were used as an AD-induced animal model. The compound of formula (1a-1) was administered intraperitoneally once every 3 days at a concentration of 1 mg/kg to 12-week-old transgenic mice for 2 weeks, and the expression of mAβ and Tau proteins in the mouse brain was measured after 1 and 4 weeks. After anesthetizing the mouse, the cervical region was incised with a dissecting tool, and then the occipital region was incised to remove both sides of the skull. The brain was washed with phosphate buffered saline (PBS) and fixed with 4% paraformaldehyde (Sigma, St Louis, MO, USA) for 12 hours at 4 °C. These were cut to a thickness of approximately 10 μm using a vibratome, and hippocampus and cortex sections were collected and placed in 24 wells. PBS was added to the wells containing the fixed tissue sections, and fluorescent nanoparticles (QD565, red fluorescence) conjugated with anti-amyloid antibodies and anti-Tau antibodies (Santa Cruz, USA) were added to each 2 μM, and reacted at 4 °C for 12 hours. The expression of mAβ and Tau was confirmed by fluorescence microscopy."}, "SIRT1": {"tested_on": "SIRT1", "test": "SIRT1 expression in mouse vascular cells", "format": "cell-based"}, "SH-SY5Y cell lines": {"tested_on": "SH-SY5Y cell lines", "test": "Proliferation of neurons (SH-SY5Y, Parkinson's disease cell model), EZ-cytox", "format": "cell-based, human", "conditions": "5 days, FIG. 4", "description": "A medium containing DMEM/F12 (Hyclone), 10% FBS (Hyclone), and 1% penicillin-streptomycin (Hyclone) was used, and the medium was replaced every two days after seeding on a T75 plate. Subculture was performed when the cell density was 80-90%.\nThen, to determine the neuronal proliferation effect, the subcultured SH-SY5Y cells were seeded in 96 wells at 5×10^3 cells/well. After 1 day, the medium was replaced with a 5% FBS ratio, and the cells were treated with the compound of formula (1a-1) at concentrations serially diluted 2-fold from 500 nM to 15.6 nM and cultured for 5 days. The medium was replaced with 10% FBS containing the drug every other day. The culture medium with 10% FBS was used as a control. After 5 days, the amount of living cells was measured at 450 nm absorbance using EZ-cytox (DoGen) to compare the cell viability."}, "[2]": {"tested_on": "APP/PS/Tau transgenic mice", "test": "Intestinal length in an AD-induced animal model (APP/PS/Tau transgenic mice)", "format": "in vivo, mouse", "conditions": "1 mg/kg i.p. once every 3 days for 2 weeks, FIG. 2", "description": "In neurodegenerative diseases (AD and PD), the length of the intestine tends to decrease as the disease progresses, so we looked for changes in intestinal length in an AD-induced animal model.\nAPP/PS/Tau transgenic mice were used as an AD-induced animal model. The compound of formula (1a-1) was administered intraperitoneally once every 3 days at a concentration of 1 mg/kg to 12-week-old transgenic mice for 2 weeks, and the changes in intestinal length of the mice were measured after 1 and 4 weeks."}, "mouse organs": {"tested_on": "mouse organs", "test": "In vivo permeability of mouse organs after CLP (Evans blue dye)", "conditions": "treated at 6 and 16 hours after CLP, EBD i.v. at 18 hours; FIG. 11C", "description": "Permeability was measured by an in vitro method using cell culture and in vivo method using Evans blue dye. To increase permeability, LPS was used in the in vitro method and CLP treatment was used in the in vivo method.\nTo measure permeability by an in vivo method, the compound of formula (1a-1) was treated at 6 and 16 hours after CLP treatment in the same manner as in Experimental Example 7 above, and 200 μl of a 0.5% Evans blue dye (EBD) solution was administered intravenously at 18 hours, circulated for 1 hour, and organs were harvested to visually confirm the presence of dye. The organs were then homogenized in a homogenizer to extract the dye at 55 °C for 48 hours, and permeability was determined by measuring absorbance at 620 nm."}, "[3]": {"tested_on": "dopamine transporter (DAT)", "test": "Differentiation of pluripotent stem cells into dopaminergic neurons: dopamine transporter", "format": "cell-based", "conditions": "5-week differentiation sample, FIG. 5B", "description": "(§1) Pluripotent stem cells were seeded in Aggre Well plates (stemcell) at 5,000 cells/microwell and cultured for 5 days in E6 medium (GIBCO) to induce embryonic body (EB) formation. For neural rosette formation, EBs were seeded into 35 mm dishes in groups of 30 and cultured for 10 days in N2bF medium. The 35 mm dishes were used after being coated with 15 μg/ml of poly-L-ornithine (sigma) and 1 μg/ml of fibronectin (sigma). The N2Bf medium composition was DMEM/F12 (GIBCO), N2 supplement (stemcell) 1×, 10% NEAA (GIBCO), 55 µM beta-Mercaptoethanol (GIBCO), bFGF (peprotech) 20 ng/ml. For the formation of spherical neural masses (SNMs), rosette masses were sliced and cultured in petri dishes with N2bF medium. SNMs were no larger than 500 UM in size and were sliced and cultured for 3 to 4 passages. After subculture of SNM, the clumps were broken into small pieces using a tungsten mesh (Nilaco) for the neural progenitor cell (NPC) culture step, and then attached to a PLO/FN-coated dish and cultured in N2bF medium. […]\n(§2) The effect of the compound of formula (1a-1) on differentiation into neurons was evaluated by comparing the expression of tyrosine hydroxylase (TH) and dopamine transporter (DAT) depending on the presence or absence of treatment with the compound of formula (1a-1)."}, "pluripotent stem cells": {"tested_on": "pluripotent stem cells", "test": "Differentiation of pluripotent stem cells into dopaminergic neurons", "format": "cell-based", "conditions": "FIG. 5", "description": "as §1, §2"}},
  "data": [
    {"smiles": "CCCCCCCCCCCCCC[C@H]1OP(=O)(O)O[C@H]1[C@@H](N)CO.Cl", "note": "[formula (1a-1), (4S,5R)-4-((S)-1-amino-2-hydroxyethyl)-2-hydroxy-5-tetradecyl-1,3,2-dioxaphosphoran-2-oxide hydrochloride]", "values": [
      {"measurement": "red fluorescence for mAβ", "setting": "[1]; 1 week and 4 weeks after", "value": "negligible red fluorescence for mAβ and Tau"},
      {"measurement": "expression of amyloid", "setting": "[1]", "value": "significantly reduced"},
      {"measurement": "concentration of maximum SIRT1 expression", "setting": "SIRT1", "value": 100, "unit": "ng/mL"},
      {"measurement": "proliferation of nerve cells", "setting": "SH-SY5Y cell lines; 15.6 nM to 500 nM", "value": "proliferation of nerve cells increases with increasing concentrations"},
      {"measurement": "concentration of maximum proliferative potency", "setting": "SH-SY5Y cell lines", "value": "~100", "unit": "nM"},
      {"measurement": "intestinal length at 4 weeks (6W) vs 1 week (3W) after administration", "setting": "[2]", "value": "the length of the intestine at 4 weeks is longer compared to the length of the intestine at 1 week"},
      {"measurement": "intestinal length vs control group", "setting": "[2]; untreated AD-induced mice as control", "value": "the intestinal length is increased"},
      {"measurement": "amount of Evans blue dye (EBD) in each organ", "setting": "mouse organs", "value": "returns to normal"},
      {"measurement": "DAT glycosylation (western blot)", "setting": "[3]", "value": "DAT glycosylation is increased"},
      {"measurement": "differentiation of pluripotent stem cells into dopaminergic neurons", "setting": "pluripotent stem cells", "value": "can promote the differentiation of pluripotent stem cells into dopaminergic neurons"}
    ]}
  ]
}
